Test systems include A498; CCRF-CEM; HCC 2998; HCT-116; HCT-15; HOP-92; Hs-578T; MDA-MB-231; MDA-MB-435; MOLT-4; NCI-H460; OVCAR-4; OVCAR-5; OVCAR-8; SK-MEL-28; SNB-19; T47D; PC-3; SNB-75.
Experiment in all cases: growth of human tumour cells (NCI), 48 h

SMILES strings stand for the structures.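 Interpolation was linear, between the two tested concentrations surrounding the appropriate level; five concentrations were tested over 48 hours in 96-well plates. GI50: concentration for 50% inhibition of growth.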 Activity calls are given as the source filed them. Rule as the data show it: active = GI50 up to about 1.1 µM and inactive = higher.

On to `COc1cc(/C=C2/SC(c3ccccc3)N(c3cccc(Cl)c3)C2=O)cc(OC)c1OC` (stereo not drawn), for which the GI50 is 81.7 µM (inactive) in the experiment with A498; 11.3 µM (inactive) in the experiment with CCRF-CEM; 36.3 µM (inactive) in the experiment on HCC 2998; 15.3 µM (inactive) with HCT-116; 20.7 µM in the experiment on HCT-15; 23.6 µM (inactive) in the experiment with HOP-92. For the same molecule, the GI50 is 47 µM (inactive) in the experiment with Hs-578T; 67 µM (inactive) in the experiment on MDA-MB-231; 17.6 µM (inactive) in the experiment with MDA-MB-435; 24.7 µM (inactive) in the experiment with MOLT-4; 32.1 µM (inactive) in the experiment with NCI-H460; 41 µM (inactive) with OVCAR-4. The GI50 was 29.9 µM (inactive) with OVCAR-5; 23.1 µM (inactive) with OVCAR-8; 26.2 µM (inactive) in the experiment with SK-MEL-28; 27.9 µM (inactive) with SNB-19; 25.5 µM (inactive) with T47D.

Consider `CN(C)CCN1C(=O)c2ccccc2C1(O)c1ccc(Cl)cc1` (stereo not drawn), for which the GI50 with CCRF-CEM is 32.4 µM (inactive); in the experiment with HCC 2998 it was 62.7 µM (inactive); in the experiment on HCT-116, 63.5 µM (inactive); with HCT-15, > 100 µM; with Hs-578T, 74 µM (inactive); in the experiment with MDA-MB-231 it was 44.6 µM (inactive). For the same molecule, the GI50 in the experiment with MDA-MB-435 was > 100 µM (inactive); with MOLT-4, 39.3 µM (inactive); with NCI-H460, 93.1 µM (inactive); in the experiment on OVCAR-4 it was > 100 µM (inactive); in the experiment on OVCAR-5, > 100 µM (inactive); in the experiment on OVCAR-8 it was > 100 µM (inactive). Also, the GI50 with PC-3 was 50.1 µM (inactive); in the experiment on SK-MEL-28, 37.8 µM (inactive); in the experiment with SNB-19 it was > 100 µM (inactive); with SNB-75, 83.4 µM (inactive); in the experiment with T47D it was 94.8 µM (inactive).

`Oc1cccc(-c2ccc3c4c2O[C@H]2c5[nH]c6ccccc6c5C[C@@]5(O)[C@@H](C3)N(CC3CC3)CC[C@]425)c1`: the GI50 was 1.9 µM (inactive) in the experiment on CCRF-CEM; 1.82 µM (inactive) in the experiment with HCT-116; 1.67 µM in the experiment on HCT-15; 2.13 µM (inactive) in the experiment on HOP-92; 1.74 µM (inactive) in the experiment with Hs-578T; 2.17 µM (inactive) in the experiment with MDA-MB-231. Besides, the GI50 in the experiment on MDA-MB-435 was 1.72 µM (inactive); in the experiment with OVCAR-4, 1.61 µM (inactive); in the experiment on OVCAR-5, 1.96 µM (inactive); in the experiment on OVCAR-8 it was 1.83 µM (inactive); with PC-3, 1.98 µM (inactive); with SNB-19, 1.64 µM (inactive). The GI50 in the experiment with T47D was 2.07 µM (inactive).

Consider `CCCCn1c(-c2ccc([N+](=O)[O-])cc2)cs/c1=N/N=C1\C(=O)Nc2ccc(Br)cc21`, for which the GI50 is 17.4 µM (inactive) with A498; 17.8 µM (inactive) in the experiment on CCRF-CEM; 17.9 µM (inactive) in the experiment with HCC 2998; 12.9 µM (inactive) with HCT-116; 21.9 µM in the experiment on HCT-15; 26 µM (inactive) in the experiment with HOP-92. Moreover, the GI50 with Hs-578T is 43.2 µM (inactive); with MDA-MB-231, 15.7 µM (inactive); in the experiment with MDA-MB-435, 14.1 µM (inactive); with MOLT-4 it was 7.43 µM (inactive); in the experiment with NCI-H460, 14.6 µM (inactive); in the experiment on OVCAR-4, 12.6 µM (inactive). In addition, the GI50 in the experiment with OVCAR-5 is 30.5 µM (inactive); in the experiment with OVCAR-8, 30 µM (inactive); in the experiment on SK-MEL-28 it was 29.4 µM (inactive); in the experiment on SNB-19, 21.8 µM (inactive); in the experiment with SNB-75, 20.3 µM (inactive); in the experiment on T47D it was 7.11 µM (inactive).

Consider `CSc1ccc(-c2cc(-c3nc4ccccc4[nH]3)nc3[nH]c(-c4nc5ccccc5[nH]4)cc(=O)c23)cc1`, for which the GI50 in the experiment with CCRF-CEM was 73.6 µM (inactive); with HCC 2998 it was 5.33 µM (inactive); in the experiment with HCT-116 it was 39.4 µM (inactive); in the experiment with HCT-15 it was > 100 µM; with HOP-92 it was > 100 µM (inactive); in the experiment with Hs-578T it was > 100 µM (inactive). For the same molecule, the GI50 with MDA-MB-435 was 41.1 µM (inactive); in the experiment with MOLT-4, > 100 µM (inactive); in the experiment with NCI-H460 it was 52.1 µM (inactive); in the experiment on OVCAR-4, 82.4 µM (inactive); with OVCAR-5 it was > 100 µM (inactive); in the experiment with OVCAR-8, 71 µM (inactive). Besides, the GI50 in the experiment with PC-3 is > 100 µM (inactive); in the experiment on SNB-19, > 100 µM (inactive); in the experiment with SNB-75, 56.2 µM (inactive); in the experiment on T47D, 95.1 µM (inactive).

Consider `Cc1ccc(-n2c(=O)c3nn4c(=O)n(-c5ccc(C)cc5)c(=O)c4nn3c2=O)cc1`, for which the GI50 with CCRF-CEM is > 100 µM (inactive); in the experiment on HCC 2998 it was > 100 µM (inactive); with HCT-116 it was > 100 µM (inactive); in the experiment with HCT-15, > 100 µM; with HOP-92, 45.6 µM (inactive); with Hs-578T, > 100 µM (inactive). In addition, the GI50 with MDA-MB-435, with MOLT-4, in the experiment with NCI-H460, with OVCAR-4, in the experiment with OVCAR-5 and in the experiment on OVCAR-8 was > 100 µM (inactive) in each case. Besides, the GI50 with PC-3 was > 100 µM (inactive); in the experiment with SK-MEL-28, > 100 µM (inactive); in the experiment with SNB-19 it was > 100 µM (inactive); in the experiment with SNB-75 it was 58.3 µM (inactive); in the experiment with T47D it was > 100 µM (inactive).

In the case of `CC(=O)OCCCC(NC(=O)OC(C)(C)C)C(=O)NC(CCCOC(C)=O)C(=O)NC(Cc1ccc([N+](=O)[O-])cc1)C(=O)NCC(=O)OCc1ccccc1` (stereo not drawn), the GI50 in the experiment with CCRF-CEM was 29.7 µM (inactive); in the experiment on HCC 2998 it was 18.9 µM (inactive); with HCT-116, 18.1 µM (inactive); with HCT-15, 15.1 µM; in the experiment on HOP-92, 18.4 µM (inactive); in the experiment with Hs-578T, 14 µM (inactive). For the same molecule, the GI50 with MDA-MB-231 is 13 µM (inactive); with MDA-MB-435 it was 17.3 µM (inactive); in the experiment with MOLT-4, 37.6 µM (inactive); in the experiment with NCI-H460 it was 15.6 µM (inactive); in the experiment with OVCAR-4 it was 12.3 µM (inactive); in the experiment with OVCAR-5, 15.8 µM (inactive). The GI50 with OVCAR-8 is 17.3 µM (inactive); with PC-3, 17.2 µM (inactive); in the experiment on SK-MEL-28, 17.9 µM (inactive); in the experiment with SNB-19, 17.8 µM (inactive); in the experiment on T47D it was 18 µM (inactive).

Consider `O=S(=O)(O)CCSSCCS(=O)(=O)O`, for which the GI50 with A498 was > 1000 µM (inactive); in the experiment with CCRF-CEM, > 1000 µM (inactive); with HCC 2998, > 1000 µM (inactive); in the experiment with HCT-116, > 1000 µM (inactive); in the experiment with HCT-15, > 1000 µM; with HOP-92, > 1000 µM (inactive). For the same molecule, the GI50 in the experiment with MDA-MB-231, in the experiment with MDA-MB-435, in the experiment on MOLT-4, in the experiment with NCI-H460, in the experiment with OVCAR-4 and in the experiment on OVCAR-5 was > 1000 µM (inactive) throughout. Moreover, the GI50 in the experiment on OVCAR-8, in the experiment on PC-3, in the experiment on SK-MEL-28, in the experiment on SNB-19, in the experiment on SNB-75 and in the experiment with T47D was > 1000 µM (inactive) in each case.

As to `Oc1cc(-c2ccc(F)cc2)nc2ncccc12`, the GI50 in the experiment with A498 was 87.3 µM (inactive); in the experiment with CCRF-CEM it was 36.2 µM (inactive); with HCC 2998, > 100 µM (inactive); in the experiment on HCT-15 it was 34.2 µM; in the experiment with HOP-92, 45.3 µM (inactive); with Hs-578T it was 65.2 µM (inactive). For the same molecule, the GI50 in the experiment with MDA-MB-231 was > 100 µM (inactive); in the experiment on MOLT-4, 52.7 µM (inactive); in the experiment on OVCAR-4, 78.9 µM (inactive); in the experiment on OVCAR-5 it was 98.9 µM (inactive); with OVCAR-8 it was 77.8 µM (inactive); in the experiment with SK-MEL-28, > 100 µM (inactive). The GI50 in the experiment on SNB-19 was 80.2 µM (inactive); in the experiment on SNB-75 it was 20.7 µM (inactive); with T47D, 48.1 µM (inactive).

These data come from ChEMBL document CHEMBL1201862, “PubChem BioAssay data set” (2004).
